In patent publication US7534576B2, “Method and a device for the evaluation of biopolymer fitness” (Olympus Corporation, priority 1993, dated 2009):
{Bodipy-C6} = Bodipy fluorophore attached via a 5'-C6 linker

Tests used:
[1] = test system: viral single-strand DNA of bacteriophage M13 (M13mp18 (+) DNA); assay: FCS of association of Bodipy-labeled primer with M13 single-strand DNA in solution; format: binding; conditions: 40° C.
Description: The oligonucleotide is labeled with Bodipy (Molecular Probes) at the 5′-C6 position. The course of the association reaction with time was measured according to the invention in solution at 40° C. The solution contained 50 nM oligonucleotide, 50 nM of M13mp18 (+) DNA in […] tris buffer, pH 7.5, and 0.18 M sodium chloride. […] Autocorrelation was determined after 0, 0.5, 1, 2, 4, 8, 16, 32, 64, 128, 192, and 256 minutes. The diffusion time of the free primer is 0.17 ms, and 2.9 ms when complex-bound. […] A reassocation rate of 0.07 min^−1 results.

NBD2 rat bladder cells = assay: FCS of internalized EGF mobility with the measuring volume in the cytosol; format: cell-based; conditions: FIG. 27
Excerpt: (§1) FIGS. 26 to 28 show the use of the FCS method according to the invention • (i) for the determination of the behavior of a fluorescence labeled ligand with respect to association with a receptor of the outer cell membrane, • (ii) for distinguishing between bound and free ligand, and/or • (iii) for measuring ligand mobility in the case of a passage into the cytosol.
The cells are surface-fixed on Petri dishes in PBS buffer (phosphate buffered saline). They had been grown beforehand in standard medium until a confluent monolayer had been reached. The medium contained EGF labeled with tetramethylrhodamine. For excitation, laser light of 500 nm wavelength of an argon laser (0.5 mW) had been chosen. […] Its concentration was 6 nM.

EGF receptor = target: T1, EGF receptor (Rattus norvegicus, UniProt G3V6K6); assay: FCS of tetramethylrhodamine-labeled EGF associating with cell-bound EGF receptor at the outer cell membrane; format: binding
T1 construct: endogenous in cells; host or cells: NBD2 rat bladder cells (tumor-derived)
Excerpt: as §1
The cells are surface-fixed on Petri dishes in PBS buffer (phosphate buffered saline). […] For excitation, laser light of 500 nm wavelength of an argon laser (0.5 mW) had been chosen. […] Its concentration was 6 nM.

| Substance | reassocation rate ([1]; 50 nM oligonucleotide, 50 nM M13mp18 (+) DNA, FIG. 29) [min⁻¹] | diffusion time of the free primer ([1]; 10 nM tris buffer pH 7.5, 0.18 M sodium chloride) [ms] | diffusion time of primer when complex-bound ([1]; bound to M13 DNA) [ms] | internalized EGF with the same mobility as the free factor (NBD2 rat bladder cells; cytosol) [%] | internalized EGF hindered in mobility (NBD2 rat bladder cells; measuring volume within the cytosol) [%] | EGF receptors per measuring volume still retaining the ligand bound with high affinity (EGF receptor; after 30 minutes of washing, FIG. 26c) | τDfree of free EGF factor (printed as rotational diffusion coefficient) (EGF receptor; free EGF, 6 nM, PBS, FIG. 26a) [ms] | diffusion time τDcomplex of receptor bound complex (EGF receptor; receptor bound in cell membrane, FIG. 26b) [ms] |
| --- | --- | --- | --- | --- | --- | --- | --- | --- |
| 5′-TGACCGGCAGCAAAATGT-3′ (DNA, 5' {Bodipy-C6}, backbone not given here) [M13/pUC (−21) primer, DNA oligonucleotide primer complementary to bacteriophage M13 single-strand DNA] | 0.07 | 0.17 | 2.9 |  |  |  |  |  |
| human epidermal growth factor (EGF) |  |  |  | 62 | 38 | about 0.5 | 0.145 | 14.54 |
